Common to all, as to assay type: cell-based
One assay addresses T1, SRD5A1 (Homo sapiens, UniProt P18405).
T1 construct: The downregulation of SRD5A1, SRD5A3, AR, ARV7, GSPT1 proteins in 22Rv1 cells by C59; endogenous in cells; host or cells: 22Rv1
The experiment in a line: Western blot assay in 22Rv1 cells: SRD5A1. The conditions noted are these: different concentrations at 24 h, and 3 nM at different time points (FIGS. 7 and 8). The source says: Example 84: Western Blot Assay of Compound C59 in 22Rv1, PC-3, and HepG2 Cells
(1) Materials: 22Rv1, PC-3, and HepG2 cell, anti-SRD5A1 antibody (ab167606), anti-SRD5A2 antibody (ab124877), anti-SRD5A3 antibody (PA5-107029), anti-androgen receptor (AR) antibody (CST, No. 5153), anti-GSPT1 antibody (Abcam, ab234433), anti-GADPH antibody (CST, No. 5174), anti-c-Myc antibody (CST, No. 8583), anti-α-tublin antibody (CST, No. 2125), anti-rabbit IgG, HRP-linked antibody (CST, No. 7074), electrophoresis device and membrane transfer device (LIUYI, BEIJING; DYCZ-24DN)
Cell seeding: 22Rv1 (Cell Bank of the Chinese Academy of Sciences, TCHu100), PC-3 (Cell Bank of the Chinese Academy of Sciences, SCSP-532) and HepG2 cells (Cell Bank of the Chinese Academy of Sciences, TCHu72) were subcultured and trypsinized to prepare 6×10^5 cells/mL suspensions, seeded on 6-well plates (3 mL/well), and cultured overnight in a cell incubator at 5% CO2 and 37° C. […]
Protein quantification: The protein was quantified using a BCA protein quantification kit. […]
Western immunoblot assay (or Western blot, WB): SDS-PAGE gel at a proper concentration was prepared according to the molecular weight of the target protein: for example, the concentration of the separation gel was 8% and the concentration of the stacking gel was 5%. The loading volume was adjusted according to the protein quantification results. […]
(In general: In western blotting, separated proteins are transferred to a membrane and probed.)

In a further assay the test system is OVCAR-3 cells. The experiment in a line: Anti-proliferative toxicity of C63 in tumor cell lines (CCK8): OVCAR-3. The conditions noted are these: Homo sapiens, 72 h, 3 days, read-out: Inhibition rate. The protocol: (§1) Example 83: Detection of Anti-Proliferative Toxicity of C63 in Some Tumor Cell Lines
OVCAR-3 cells (purchased from the Cell Bank of the Chinese Academy of Sciences, Cat. No. TCHu228) were subcultured in a culture medium (RPMI-1640 medium+1% penicillin-streptomycin dual-antibiotic solution++20% fetal bovine serum+0.01 mg/mL recombinant human insulin) in an incubator at 5% carbon dioxide and 37° C.
OVCAR-3 cells were seeded at 2000 cells/well (90 μL) on a 96-well plate and cultured for 24 h.
(§2) 10 mM compound stock solutions were prepared in DMSO.
(§3) The compound stock solution was diluted with DMSO to give DMSO solutions 1-9 at concentrations of 0 μM, 2500 μM, 500 μM, 100 μM, 20 μM, 4 μM, 0.8 μM, 0.16 μM, and 0.032 μM.
(§4) 2 μL of each of solutions 1-9 was added to 98 μL of the medium to give mixed solutions 11-19 of the compound and the medium.
(§5) 10 μL of each of solutions 11-19 was added to the above cell seed solution to give a total volume of 100 μL (90 μL+10 μL).
(§6) The concentrations of the compound in the wells were 0 μM, 5.0 μM, 1.0 μM, 0.2 μM, 0.04 μM, 0.008 μM, 0.0016 μM, 0.00032 μM, and 0.000064 μM. All concentrations were in triplicate.
(§7) After the above-treated cells were cultured for 3 days, 10 μL of the CCK8 solution (DOJINDO, Cat. No. PF725) was added to each well. The plate was incubated in an incubator at 37° C. for 1-4 h and then detected on a microplate reader for the reading at 450 nm.

The test system of the next assay is Ca Ski cells. The experiment in a line: Anti-proliferative toxicity of C63 in tumor cell lines (CCK8): Ca Ski. As to conditions: Homo sapiens, 72 h, 3 days, read-out: Inhibition rate. The method, then:
as §1
Ca Ski cells (purchased from the Cell Bank of the Chinese Academy of Sciences, Cat. No. TCHu137) were subcultured in a culture medium (RPMI-1640 medium+1% penicillin-streptomycin dual-antibiotic solution+10% fetal bovine serum) in an incubator at 5% carbon dioxide and 37° C.
Ca Ski cells were seeded at 5000 cells/well (90 μL) on a 96-well plate and cultured for 24 h.
as §2, §3, §4, §5, §6, §7

The next assay concerns Hep G2 cells. The experiment in a line: Anti-proliferative toxicity of C63 in tumor cell lines (CCK8): Hep G2. The conditions noted are these: Homo sapiens, HepG2, 72 h, 3 days, read-out: Inhibition rate. The method, then: as §1
HepG2 cells (purchased from the Cell Bank of the Chinese Academy of Sciences, Cat. No. TCHu72) were subcultured in a culture medium (MEM medium+1% penicillin-streptomycin dual-antibiotic solution+10% fetal bovine serum) in an incubator at 5% carbon dioxide and 37° C.
Hep G2 cells were seeded at 2000 cells/well (90 μL) on a 96-well plate and cultured for 24 h.
as §2, §3, §4, §5, §6, §7

The text below walks through data of patent publication US20250213701A1, “MEDICAMENT FOR TREATING HUMAN TUMOR BASED ON ERF3A-TARGETING PROTEOLYSIS MECHANISM” (SUZHOU DEGEN BIO-MEDICAL CO., LTD., priority 2022, published 2025).

Structures are written as SMILES.

T1 sequence (P18405 whole entry): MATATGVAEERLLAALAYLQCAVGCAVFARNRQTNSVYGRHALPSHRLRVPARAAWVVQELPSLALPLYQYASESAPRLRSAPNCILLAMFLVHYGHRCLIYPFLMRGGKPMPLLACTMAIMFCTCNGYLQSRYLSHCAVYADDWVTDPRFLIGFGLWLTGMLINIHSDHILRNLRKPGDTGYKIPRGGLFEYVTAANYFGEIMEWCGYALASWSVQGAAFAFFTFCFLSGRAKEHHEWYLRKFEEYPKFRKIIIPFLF

On to `C[C@]12C=CC(=O)N[C@@H]1CC[C@@H]1[C@@H]2CC[C@]2(C)[C@@H](C(=O)Nc3cccc(N[C@@H]4CCC[C@@H](Nc5cccc6c5C(=O)N(C5CCC(=O)NC5=O)C6=O)C4)c3)CC[C@@H]12` (stereo partly drawn) [C59, N-(3-(N—(N-(4-(2-(3-(2,6-dioxopiperidine))-isoindole-1,3-dione))-1R,3R-cyclohexanediamine))phenyl)-3-oxo-4-aza-5α-androst-1-ene-17β-carboxamide], for which the “downregulation of SRD5A1 protein (Western blot)” value on SRD5A1 is listed as “downregulation”.
As a reminder, the inhibition is the relative decrease from the control value, in per cent. Consider `C[C@]12C=CC(=O)N[C@@H]1CC[C@@H]1[C@@H]2CC[C@]2(C)[C@@H](C(=O)Nc3cccc(N[C@@H]4CCC[C@@H](Nc5cccc6c5C(=O)N([C@H]5CCC(=O)NC5=O)C6=O)C4)c3)CC[C@@H]12` [C63, N-(3-(N—(N-(4-(2-(3S-(2,6-dioxopiperidine))-isoindole-1,3-dione))-1R,3R-cyclohexanediamine))phenyl)-3-oxo-4-aza-5α-androst-1-ene-17β-carboxamide], for which the inhibition at 64 pM in the assay with OVCAR-3 cells (0.000064 μM) was 17.9%; with Ca Ski cells (0.000064 μM), 2.03%; in the assay on Hep G2 cells (0.000064 μM) it was 1.97%. Moreover, the inhibition at 0.00032 µM in the assay on OVCAR-3 cells (0.000320 μM) was 16.4%; with Ca Ski cells (0.000320 μM) it was 6.27%; in the assay on Hep G2 cells (0.000320 μM) it was 14.1%. Further, the inhibition at 0.0016 µM was determined as 42.6% in the assay with OVCAR-3 cells (0.001600 μM), 42.9% in the assay with Ca Ski cells (0.001600 μM) and 66.9% with Hep G2 cells (0.001600 μM). Also, the inhibition at 0.008 µM is 61.4% in the assay on OVCAR-3 cells (0.008000 μM), 65.4% in the assay with Ca Ski cells (0.008000 μM) and 79.3% with Hep G2 cells (0.008000 μM). The inhibition at 0.04 µM worked out at 74.4% in the assay with OVCAR-3 cells (0.040000 μM), 73.9% in the assay on Ca Ski cells (0.040000 μM) and 87.1% in the assay on Hep G2 cells (0.040000 μM). The figures for the inhibition at 0.2 µM in the assay with OVCAR-3 cells (0.200000 μM), in the assay with Ca Ski cells (0.200000 μM) and with Hep G2 cells (0.200000 μM) were 80%, 78% and 87.3%, respectively. In addition, the inhibition at 1 µM with OVCAR-3 cells (1.000000 μM) was found to be 83.7%; with Ca Ski cells (1.000000 μM), 77.8%; in the assay with Hep G2 cells (1.000000 μM) it was 85.7%. For the same compound, the inhibition at 5 µM in the assay on OVCAR-3 cells (5.000000 μM) was determined as 85%; in the assay on Ca Ski cells (5.000000 μM) it was 78.1%; in the assay on Hep G2 cells (5.000000 μM), 81.1%.
